Experimental data from patent US9283277B2, “Methods and compositions for the treatment of obesity” (Children's Medical Center Corporation, priority 2008, dated 2016).

What was measured:
[1] = system: LepRB signaling (LepRB, Jak2, Stat3); experiment: Tunicamycin dose curve and time course in Ad-LacZ, Ad-XBP1s or Ad-ATF6n infected LepRb-expressing 293 cells; type: cell-based, Human
Source text: To determine whether exogenous expression of XBP1s and a consequent increase in ER folding capacity would enhance leptin receptor signaling, we generated an XBP1s-encoding adenovirus (Ad-XBP1s) and also a LacZ-expressing adenovirus (Ad-LacZ) as a control. Infection of mouse embryonic fibroblasts (MEFs) with Ad-XBP1s increased the protein level of XBP1s (data not shown). To test whether the expressed XBP1s was functional, we co-infected cells with Ad-XBP1s and a luciferase reporter gene-driven by an ERSE. […] ERDJ4 is a chaperone and involved in folding of ER proteins. […] After showing that Ad-XBP1s is functional and can increase ER folding capacity, we subsequently overexpressed the XBP1s in the LepRb-expressing 293 cells and performed two sets of experiments. In the first, we asked whether XBP1s overexpression could enhance the leptin-stimulated tyrosine phosphorylation of LepRb and increase the ability of the cells withstand to the ER stress-mediated blockade of LepRb activation. For this purpose we stimulated the 293 cells with increasing doses of tunicamycin (0.001, 0.01, 0.05, 0.1 and 1 μg/ml) for 5 hours and analyzed leptin-stimulated LepRb activation. In Ad-LacZ infected cells, LepRb activation was blocked at tunicamycin doses of 0.01 μg/ml and higher (data not shown). […]

[2] = system: LepRB signaling (LepRB, Jak2, Stat3); experiment: Leptin receptor signaling in LepRB-expressing 293 cells under tunicamycin-induced ER stress; type: cell-based, Human; conditions: then leptin 100 ng/ml 45 minutes
Source text: The leptin receptor belongs to the interleukin 6 (IL-6) receptor family of class I cytokine receptors^30. […] Binding of leptin to LepRb initiates a conformational change that leads to trans-autophosphorylation and activation of LepRb-associated Jak2^31,32 Activated Jak2 then phosphorylates the tyrosine residues within the LepRb/Jak2 complex to mediate downstream signaling. […] To examine whether UPR might alter the leptin signaling, LepRB-expressing 293 cells were first exposed to tunicamycin (3 μg/ml) to activate ER stress for a period of 4 hours and then treated with leptin (100 ng/ml) for 45 minutes. […] Finally, as a downstream element, leptin-stimulated Stat3 activation was analyzed.

[3] = system: hypothalamus of lean mice; experiment: Tunicamycin infusion to the third ventricle of lean mice; type: in vivo
Source text: Having shown that ER stress is increased in the hypothalamus of HFD-fed mice and causes leptin resistance in the cellular systems, we sought to investigate whether leptin action could also be blocked by directly inducing ER stress in brains of lean mice.
Next, we investigated the expression patterns of leptin resistance markers such as neuropeptide Y (NPY) and agouti related peptide (AgRP) in the vehicle- and tunicamycin-infused mice. […] In addition, to exclude the possibility that tunicamycin infusion leads to a decay in mRNA degradation of NPY and AgRP due to a possible toxic effect, we analyzed mRNA levels of IR and insulin receptor substrate 1 (IRS1).
To assess whether increased ER stress and activation of UPR signaling would create leptin resistance and block the leptin-stimulated Stat3 activation in the hypothalamus, leptin (1 mg/kg/day) was intraperitoneally administered 5½ hours after tunicamycin infusion. The experiment was ended by dissection of the hypothalami 30 minutes after leptin administration. […] In contrast, administration of tunicamycin to the third ventricle and creation of ER stress, in complete accordance with our data obtained from 293 cells, blocked activation of Stat3 in the hypothalamus (data not shown).

LepRB = LepRB membrane translocation (immunofluorescence) and leptin-binding assay in 293 cells; type: cell-based, Human
Procedure: Considering the fact that LepRB is folded in the ER, we investigated whether ER stress blocks leptin receptor translocation to the membrane from the ER and whether this could be a reason for the blockade of leptin signaling. We stimulated the 293 cells with tunicamycin for five hours (3 μg/ml) and analyzed leptin receptor levels in the plasma membrane by immunofluoresence staining. It was observed that LepRB folding is still preserved and its translocation to the membrane is not decreased in ER stress conditions. Next, we performed leptin-binding assays in DMSO and tunicamycin-treated cells to exclude the possibility of a defect in binding of leptin to LepRB.

insulin receptor (IR) = experiment: Insulin receptor activation in LepRB-expressing 293 cells after tunicamycin; type: cell-based, Human; conditions: tunicamycin 3 μg/ml five hours, insulin 100 nM five minutes
Procedure: To exclude the possibility that LepRB-expressing 293 cells become dysfunctional due to a possible toxicity generated by tunicamycin, we investigated the insulin receptor (IR) activation by stimulating the cells with insulin (100 nM) for five minutes after five-hour tunicamycin (3 μg/ml) treatment.

[4] = tunicamycin 3 μg/ml (or DMSO) 4 hours

For tunicamycin, the “time until leptin-stimulated LepRb, Jak2 activation and Stat3 tyrosine phosphorylation are blocked” value ([1]; Ad-LacZ infected 293 cells, tunicamycin 0.05 μg/ml) was ≤ 2 h, the “CHOP mRNA expression” value ([1]; tunicamycin 0.01 and 0.05 μg/ml, five hours) was “upregulates” and the “leptin-stimulated Jak2 tyrosine phosphorylation” value ([2]; tunicamycin 3 μg/ml 4 hours) was “reduced to an undetectable level”. For the same substance, the “leptin-induced Stat3 phosphorylation (Tyr705)” value [2, 4] was “totally abolished”, the “leptin-stimulated LepRB tyrosine phosphorylation” value [2, 4] was “completely inhibited” and the “Stat3 phosphorylation (activation) in the hypothalamus” value ([3]; leptin 1 mg/kg IP 5½ hours after third ventricle tunicamycin or vehicle infusion, 30 minutes after leptin) was “blocked”. For the same substance, the “POMC mRNA levels in hypothalamus” value ([3]; third ventricle infusion) was “did not show any significant difference”, the acute food intake ([3]; third ventricle infusion) was “significantly increased” and the “hypothalamic mRNA levels of IR and IRS1” value ([3]; third ventricle infusion) was “does not lead to a change”. For the same substance, the “mRNA levels of NPY and AgRP in hypothalamus” value ([3]; third ventricle infusion) was “significant increase”, the “mRNA levels of ER stress-responsive genes (XBP1s, CHOP, ERDJ4) in hypothalamus” value ([3]; third ventricle infusion, twelve hours after infusion) was “significantly upregulated” and the “LepRB translocation to the plasma membrane” value (LepRB; 293 cells, tunicamycin 3 μg/ml five hours, immunofluorescence) was “not decreased”. For the same substance, the “leptin binding to LepRB” value (LepRB; tunicamycin-treated vs DMSO-treated cells) was “significantly increased” and the “insulin-stimulated IR tyrosine phosphorylation” value (insulin receptor (IR)) was “did not change”.
